Experimental data: PubChem BioAssay (NCI)
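Dose response: 5 concentrations. Exposure: 48 h. Format: 96-well plates. Endpoint: linear interpolation; highest concentration if not reached. TGI marks complete inhibition of growth.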

Tests used:
Assay in all cases: growth of human tumour cells (NCI), 48 h
[1] = system: HOP-62 NSCLC
[2] = system: UACC-62 melanoma
[3] = system: SF-539 CNS
[4] = system: SR leukemia
[5] = system: SF-295 CNS
[6] = system: SW-620 colon
[7] = system: RXF 393 renal
[8] = system: OVCAR-5 ovarian
[9] = system: HCC-2998 colon
[10] = system: 786-0 renal
[11] = system: SNB-19 CNS
[12] = system: SK-MEL-28 melanoma
[13] = system: HT29 colon
[14] = system: NCI-H23 lung
[15] = system: HOP-92 NSCLC
[16] = system: SK-OV-3 ovarian
[17] = system: U251 CNS
[18] = system: HL-60(TB) leukemia

| Structure (SMILES) | TGI [1] | TGI [2] | TGI [3] | TGI [4] | TGI [5] | TGI [6] | TGI [7] | TGI [8] | TGI [9] | TGI [10] | TGI [11] | TGI [12] | TGI [13] | TGI [14] | TGI [15] | TGI [16] | TGI [17] | TGI [18] |
| --- | --- | --- | --- | --- | --- | --- | --- | --- | --- | --- | --- | --- | --- | --- | --- | --- | --- | --- |
| CCOC(=O)c1cn2c([nH]c3ccccc32)c(C#N)c1=O | > 100 µM | > 100 µM | > 100 µM | > 100 µM | > 100 µM | 39.5 µM | > 100 µM | > 100 µM | > 100 µM | > 100 µM | > 100 µM | > 100 µM | > 100 µM | > 100 µM | > 100 µM | > 100 µM | > 100 µM | 47.1 µM |
| C1=c2ccccc2=C2C(=C(c3ccccc3)C(c3ccccc3)=NN2c2ccccc2)S1 | > 100 µM | > 100 µM | > 100 µM | – | > 100 µM | > 100 µM | > 100 µM | > 100 µM | > 100 µM | > 100 µM | > 100 µM | > 100 µM | > 100 µM | > 100 µM | > 100 µM | > 100 µM | > 100 µM | > 100 µM |
| O=C(O)Cc1ccc2c(c1O)C(=O)c1c(ccc(CC(=O)O)c1O)C2=O | > 100 µM | – | > 100 µM | > 100 µM | > 100 µM | > 100 µM | – | > 100 µM | > 100 µM | > 100 µM | > 100 µM | > 100 µM | > 100 µM | > 100 µM | > 100 µM | > 100 µM | > 100 µM | > 100 µM |
| COC1=CC(=O)c2ccccc2C1(C)C1=NC(C)(C)CO1 (stereo not given) | > 100 µM | > 100 µM | > 100 µM | > 100 µM | > 100 µM | > 100 µM | > 100 µM | – | – | > 100 µM | > 100 µM | > 100 µM | > 100 µM | > 100 µM | > 100 µM | > 100 µM | > 100 µM | > 100 µM |
| CCOC(=O)C1CC/C(=C(/C#N)C(=O)OC)N1 (stereo not given) | > 100 µM | > 100 µM | > 100 µM | > 100 µM | > 100 µM | > 100 µM | > 100 µM | – | > 100 µM | > 100 µM | > 100 µM | > 100 µM | – | > 100 µM | > 100 µM | > 100 µM | > 100 µM | > 100 µM |
| CC(C)c1cccc(C(C)C)c1NC1=CC(=O)C(=O)c2ccccc21 | > 100 µM | > 100 µM | > 100 µM | > 100 µM | > 100 µM | > 100 µM | > 100 µM | > 100 µM | > 100 µM | > 100 µM | > 100 µM | > 100 µM | > 100 µM | > 100 µM | > 100 µM | > 100 µM | > 100 µM | > 100 µM |
| COCC12CC(CC1=O)C1C2ON2c3ccccc3C(=O)C12c1ccccc1 (stereo not given) | > 100 µM | > 100 µM | > 100 µM | > 100 µM | > 100 µM | > 100 µM | > 100 µM | – | > 100 µM | > 100 µM | > 100 µM | > 100 µM | > 100 µM | > 100 µM | > 100 µM | > 100 µM | > 100 µM | > 100 µM |
| O=C1C=C(Nc2ccccc2C(=O)CC(=O)C(=O)Nc2ccc(Cl)c(Cl)c2)c2ccccc2C1=O | > 100 µM | 62.2 µM | > 100 µM | > 100 µM | > 100 µM | – | > 100 µM | > 100 µM | > 100 µM | > 100 µM | > 100 µM | 37.4 µM | > 100 µM | > 100 µM | > 100 µM | > 100 µM | > 100 µM | – |
| COc1ccc(C2S/C(=C\c3cccc(O)c3)C(=O)N2NC(=O)Cc2ccccc2)cc1 (stereo not given) | > 100 µM | > 100 µM | > 100 µM | > 100 µM | > 100 µM | > 100 µM | > 100 µM | > 100 µM | – | > 100 µM | – | – | > 100 µM | > 100 µM | > 100 µM | > 100 µM | > 100 µM | > 100 µM |
| COC(=O)c1cc(C)n(NC(=O)OC(C)(C)C)c1C | > 100 µM | > 100 µM | > 100 µM | – | > 100 µM | > 100 µM | > 100 µM | > 100 µM | > 100 µM | > 100 µM | > 100 µM | > 100 µM | > 100 µM | > 100 µM | – | > 100 µM | > 100 µM | > 100 µM |
| O=S(Cc1cc2c(cc1Br)OCO2)c1ccccc1 (stereo not given) | > 100 µM | > 100 µM | 91.2 µM | – | > 100 µM | 29.7 µM | > 100 µM | > 100 µM | > 100 µM | > 100 µM | > 100 µM | > 100 µM | > 100 µM | > 100 µM | > 100 µM | > 100 µM | > 100 µM | 57.4 µM |
| Nn1c(N=Nc2c(O)[nH]c3ccccc23)n[nH]c1=S | > 100 µM | > 100 µM | > 100 µM | > 100 µM | > 100 µM | > 100 µM | 95.1 µM | > 100 µM | > 100 µM | > 100 µM | > 100 µM | > 100 µM | > 100 µM | > 100 µM | > 100 µM | > 100 µM | > 100 µM | > 100 µM |
| CCOc1ccc(NC(=O)CCC(=O)NN)cc1 | > 100 µM | – | – | – | > 100 µM | > 100 µM | > 100 µM | > 100 µM | > 100 µM | > 100 µM | > 100 µM | > 100 µM | > 100 µM | > 100 µM | > 100 µM | – | > 100 µM | > 100 µM |
| O=C(/C=C/c1ccc(Cl)c(Cl)c1)C1CCC(Cl)CC1 (stereo not given) | > 100 µM | 31.2 µM | 33.6 µM | – | 35.8 µM | 31.7 µM | 37.9 µM | 43.3 µM | 32.8 µM | 30.6 µM | 39 µM | 31.4 µM | 31.7 µM | 38.8 µM | 86.6 µM | 33 µM | 28.3 µM | – |
